Reference: ChEMBL document CHEMBL3046317, “Synthesis and Herbicidal Activity of Sulfonylureas with Fused Heterocyclic Moiety” (1994)

What was measured:
Type in all cases: functional
Echinochloa oryzicola [1] = assay: Herbicidal activity against Echinochloa oryzicola assessed as killing at 10 g/ha by pot test
Rotala indica [2] = assay: Herbicidal activity against Rotala indica assessed as killing at 1 g/ha by pot test
Lindernia procumbens [3] = assay: Herbicidal activity against Lindernia procumbens assessed as killing at 1 g/ha by pot test
Sagittaria pygmaea [4] = assay: Herbicidal activity against Sagittaria pygmaea assessed as killing at 1 g/ha by pot test
[5] = test system: Schoenoplectiella juncoides; assay: Herbicidal activity against Schoenoplectiella juncoides assessed as killing at 1 g/ha by pot test
Cyperus difformis [6] = assay: Herbicidal activity against Cyperus difformis assessed as killing at 1 g/ha by pot test
Echinochloa oryzicola [7] = assay: Herbicidal activity against Echinochloa oryzicola assessed as killing at 1 g/ha by pot test
Rotala indica [8] = assay: Herbicidal activity against Rotala indica assessed as killing at 10 g/ha by pot test
Lindernia procumbens [9] = assay: Herbicidal activity against Lindernia procumbens assessed as killing at 10 g/ha by pot test
Sagittaria pygmaea [10] = assay: Herbicidal activity against Sagittaria pygmaea assessed as killing at 10 g/ha by pot test
[11] = test system: Schoenoplectiella juncoides; assay: Herbicidal activity against Schoenoplectiella juncoides assessed as killing at 10 g/ha by pot test
Cyperus difformis [12] = assay: Herbicidal activity against Cyperus difformis assessed as killing at 10 g/ha by pot test

## COc1cc(OC)nc(NC(=O)NS(=O)(=O)c2nc(C)n3ccccc23)n1
Echinochloa oryzicola [1]
  Activity: 1%
Rotala indica [2]
  Activity: 51%
Lindernia procumbens [3]
  Activity: 1%
Sagittaria pygmaea [4]
  Activity: 51%
[5]
  Activity: 1%
Cyperus difformis [6]
  Activity: 1%
Echinochloa oryzicola [7]
  Activity: 1%
Rotala indica [8]
  Activity: 76%
Lindernia procumbens [9]
  Activity: 1%
Sagittaria pygmaea [10]
  Activity: 51%
[11]
  Activity: 1%
Cyperus difformis [12]
  Activity: 76%

## COc1cc(OC)nc(NC(=O)NS(=O)(=O)c2c(C)nc3n(C)ccn23)n1
Echinochloa oryzicola [1]
  Activity: 88%
Rotala indica [2]
  Activity: 51%
Lindernia procumbens [3]
  Activity: 51%
Sagittaria pygmaea [4]
  Activity: 1%
[5]
  Activity: 1%
Cyperus difformis [6]
  Activity: 1%
Echinochloa oryzicola [7]
  Activity: 1%
Rotala indica [8]
  Activity: 88%
Lindernia procumbens [9]
  Activity: 51%
Sagittaria pygmaea [10]
  Activity: 76%
[11]
  Activity: 76%
Cyperus difformis [12]
  Activity: 76%

## COc1cc(OC)nc(NC(=O)NS(=O)(=O)c2ncn3ccccc23)n1
Echinochloa oryzicola [1]
  Activity: 51%
Rotala indica [2]
  Activity: 51%
Lindernia procumbens [3]
  Activity: 1%
Sagittaria pygmaea [4]
  Activity: 1%
[5]
  Activity: 1%
Cyperus difformis [6]
  Activity: 51%
Echinochloa oryzicola [7]
  Activity: 1%
Rotala indica [8]
  Activity: 76%
Lindernia procumbens [9]
  Activity: 51%
Sagittaria pygmaea [10]
  Activity: 76%
[11]
  Activity: 1%
Cyperus difformis [12]
  Activity: 76%

## COc1cc(OC)nc(NC(=O)NS(=O)(=O)c2ncc3ccccn23)n1
Echinochloa oryzicola [1]
  Activity: 1%
Rotala indica [2]
  Activity: 51%
Lindernia procumbens [3]
  Activity: 1%
Sagittaria pygmaea [4]
  Activity: 1%
[5]
  Activity: 1%
Cyperus difformis [6]
  Activity: 1%
Echinochloa oryzicola [7]
  Activity: 1%
Rotala indica [8]
  Activity: 51%
Lindernia procumbens [9]
  Activity: 51%
Sagittaria pygmaea [10]
  Activity: 76%
[11]
  Activity: 51%
Cyperus difformis [12]
  Activity: 1%

## COc1cc(OC)nc(NC(=O)NS(=O)(=O)c2c(C)cn3ccccc23)n1
Echinochloa oryzicola [1]
  Activity: 1%
Rotala indica [2]
  Activity: 1%
Lindernia procumbens [3]
  Activity: 1%
Sagittaria pygmaea [4]
  Activity: 51%
[5]
  Activity: 1%
Cyperus difformis [6]
  Activity: 1%
Echinochloa oryzicola [7]
  Activity: 1%
Rotala indica [8]
  Activity: 1%
Lindernia procumbens [9]
  Activity: 1%
Sagittaria pygmaea [10]
  Activity: 76%
[11]
  Activity: 1%
Cyperus difformis [12]
  Activity: 51%

## COc1cc(OC)nc(NC(=O)NS(=O)(=O)c2c(C)nc3cccnn23)n1
Echinochloa oryzicola [1]
  Activity: 100%
Rotala indica [2]
  Activity: 88%
Lindernia procumbens [3]
  Activity: 88%
Sagittaria pygmaea [4]
  Activity: 88%
[5]
  Activity: 100%
Cyperus difformis [6]
  Activity: 88%
Echinochloa oryzicola [7]
  Activity: 88%
Rotala indica [8]
  Activity: 88%
Lindernia procumbens [9]
  Activity: 88%
Sagittaria pygmaea [10]
  Activity: 100%
[11]
  Activity: 100%
Cyperus difformis [12]
  Activity: 100%

## COc1cc(OC)nc(NC(=O)NS(=O)(=O)c2c(C)nn3cccnc23)n1
Echinochloa oryzicola [1]
  Activity: 88%
Rotala indica [2]
  Activity: 76%
Lindernia procumbens [3]
  Activity: 88%
Sagittaria pygmaea [4]
  Activity: 76%
[5]
  Activity: 76%
Cyperus difformis [6]
  Activity: 88%
Echinochloa oryzicola [7]
  Activity: 88%
Rotala indica [8]
  Activity: 88%
Lindernia procumbens [9]
  Activity: 88%
Sagittaria pygmaea [10]
  Activity: 88%
[11]
  Activity: 100%
Cyperus difformis [12]
  Activity: 88%

## COc1cc(OC)nc(NC(=O)NS(=O)(=O)c2c(C)cc3ccccn23)n1
Echinochloa oryzicola [1]
  Activity: 76%
Rotala indica [2]
  Activity: 1%
Lindernia procumbens [3]
  Activity: 1%
Sagittaria pygmaea [4]
  Activity: 51%
[5]
  Activity: 1%
Cyperus difformis [6]
  Activity: 1%
Echinochloa oryzicola [7]
  Activity: 1%
Rotala indica [8]
  Activity: 51%
Lindernia procumbens [9]
  Activity: 51%
Sagittaria pygmaea [10]
  Activity: 76%
[11]
  Activity: 51%
Cyperus difformis [12]
  Activity: 76%

## COc1cc(OC)nc(NC(=O)NS(=O)(=O)c2c(C)nn3ccccc23)n1
Echinochloa oryzicola [1]
  Activity: 88%
Rotala indica [2]
  Activity: 88%
Lindernia procumbens [3]
  Activity: 76%
Sagittaria pygmaea [4]
  Activity: 88%
[5]
  Activity: 76%
Cyperus difformis [6]
  Activity: 88%
Echinochloa oryzicola [7]
  Activity: 88%
Rotala indica [8]
  Activity: 88%
Lindernia procumbens [9]
  Activity: 88%
Sagittaria pygmaea [10]
  Activity: 88%
[11]
  Activity: 100%
Cyperus difformis [12]
  Activity: 88%

## COc1cc(OC)nc(NC(=O)NS(=O)(=O)c2c(C)nc3scnn23)n1
Echinochloa oryzicola [1]
  Activity: 88%
Rotala indica [2]
  Activity: 76%
Lindernia procumbens [3]
  Activity: 76%
Sagittaria pygmaea [4]
  Activity: 1%
[5]
  Activity: 51%
Cyperus difformis [6]
  Activity: 1%
Echinochloa oryzicola [7]
  Activity: 76%
Rotala indica [8]
  Activity: 88%
Lindernia procumbens [9]
  Activity: 88%
Sagittaria pygmaea [10]
  Activity: 88%
[11]
  Activity: 88%
Cyperus difformis [12]
  Activity: 88%
